From patent US11542476B2, “Advanced pulmonary models” (EMULATE, INC., priority 2017, dated 2023)
Entries after “also recorded” stand apart in the source; their conditions may differ.

What was measured:
[1] = system: host cells of Airway On-Chip; experiment: TUNEL apoptosis staining on Airway On-Chip; type: cell-based, human; conditions: 3 μM for 3 h at 37° C.; positive control
Procedure: One embodiment of an Airway On-Chip was infected as described above for 2 hours and then treated 50 μg/ml tetracycline for 24 h (top and bottom channels under flow) for 24 h in order to limit bacterial replication (to avoid over-replication and cell lifting). Using this methodology, we performed longer infections on an airway chip and avoided cell death at 24 h. At 24 h, chips were fixed with 4% paraformaldehyde for 15 minutes and subsequently permeabilized with 0.25% triton in PBS. Apoptosis staining was performed following the Click-iT™ Plus TUNEL Assay for In Situ Apoptosis Detection, Alexa Fluor 647 assay: Click-iT™ Plus TUNEL Assay, Thermo Fisher Scientific Inc., 6 Nov. 2017.
The TUNEL assay is based on the incorporation of modified dUTPs by the enzyme terminal deoxynucleotidyl transferase (TdT) at the 3′-OH ends of fragmented DNA, a hallmark as well as the ultimate determinate of apoptosis. ClickiT™ Plus TUNEL assay with the Alexa Fluor™ 647 dye was utilized to detect the fragment DNA (purple), nuclei were labelled with DAPI.
Staurosporin, a prototypical ATP-competitive kinase inhibitor, was used as a positive control in this assay. […] As an additional positive control, chips were treated with 1 unit of DNAse I for 30 minutes at room temperature to induce TUNEL positive DNA strand breaks.

[2] = system: human neutrophil; experiment: Neutrophil recruitment/attachment in Airway-on-Chip model of acute asthma exacerbation (HRV-16 infection, IL-13 stimulation); type: cell-based
Procedure: In this embodiment, an exemplary respiratory virus, e.g., Rhinovirus, was added to the upper channel of the chip, IL-13 was used to stimulate cells, and neutrophils were added to the lower channel, see, FIG. 14A.
See, FIG. 14B and FIG. 14C.
HRV-16 is represented as small green dots in the upper channel while neutrophil cells (also described as polymorphonuclear leukocytes (PMN)) are represented as large purple spots in the lower channel. […] Treatments included HRV-16 alone infected cells, IL-13 alone treated cells, HRV-16 and (+) IL-13 treated cells, HRV-16+CXCR2in (inhibitor) treated cells, and HRV-16+IL-13+CXCR2in. […] FIG. 14C is a graphical comparison showing PMN (neutrophil) cells counts as % of untreated cells and cells treated with combinations shown for IL-13, HRV, and CXCR2 (in) treatments. Quantification of neutrophil recruitment (** p<0.01; **** p<0.001).

[3] = system: goblet cells; experiment: IL-13 induced goblet cell hyperplasia in Airway-on-Chip (MUC5AC staining); type: cell-based, human
Excerpt: As an exemplary immuno-modulatory compound, addition of IL-13 to an Airway-on-Chip induced changes in epithelial cell layers in the upper channel with an air interface and endothelial cells in the lower channel under media fluid flow conditions are shown. It was discovered that IL-13 added to this embodiment of Airway-on-Chip effects both the epithelial cell layer in the upper channel with an air interface and the endothelial cells in the lower channel under media flow conditions. FIG. 9A is a schematic illustration showing IL-13 in the context of an Airway-on-Chip, where IL-13 effects both epithelial cells in the upper channel with an air interface and endothelial cells in the lower channel under flow (left). […] IL-13 is added to the endothelial channel at an exemplary 100 ng/ml for an exemplary 7 days.
This hyperplasia effect can be inhibited by Tofacitinib, an inhibitor of the JAK/STAT pathway (Janus Kinase (JAK) and Signal Transducer and Activator of Transcription (STAT)).
Creation of a Th2 microenvironment through IL-13 stimulation induces an asthma-like phenotype in the Airway Chip. Exacerbation is then triggered by infecting with human rhinovirus 16. […]

[4] = system: endothelial cells; experiment: IL-13 effects on endothelial cells of Airway-on-Chip (adhesion molecule gene and protein expression); type: cell-based, human
Excerpt: Induced gene expression for adhesion molecules was also observed after IL-13 treatment, FIG. 9C. Examples of IL-13 induced Selectins (P and E) and ICAM-1 (Intercellular Adhesion Molecule 1) and VCAM-1 (vascular cell adhesion molecule-1). Doerr, “The condition-dependent proteome.” Nat Methods. 2016 Febuary; 13(2):117.
Other compounds tested included Interleukin alpha (IL1A), Interleukin beta (IL1B), Interleukin-6 (IL6), Interleukin-8 (IL8), The chemokine (C-C motif) ligand 2 (CCL2), C-C Motif Chemokine Receptor 4 (CCR4), Protein Tyrosine Phosphatase, Receptor Type C (PTPRC), Intercellular Adhesion Molecule 1 (ICAM1), Selectin P (SELP), Selectin E (SELE), Prostaglandin-Endoperoxide Synthase 2 (PTGS2), Transforming Growth Factor Beta 1 (TGFB1), SMAD Family Member 7 (SMAD7), Complement C3 (C3), Angiotensin I Converting Enzyme (ACE), cluster of differentiation 34: CD34 antigen: CD34 molecule (CD34) and Nuclear Factor Of Activated T-Cells 4 (NFATC4).
In one embodiment, an asthma phenotype was generated using IL-13 stimulation. This stimulation led to the activation of human endothelium at 48 hours of treatment. IL-13 induces vessel (endothelial cell) wall priming as part of recruitment of immune cells. […] IL-13 100 ng/mL (right panels) vs. no treatment controls (left panels) VE-Cadherin (red), ICAM-1 (green) in the upper panels. VCAM-1 (red) VE-Cadherin (green). […]

[5] = system: Human Airway Epithelium; experiment: Cilia beating frequency on-chip; type: cell-based; conditions: IL-13 stimulation
[6] = system: HRV-16; experiment: HRV-16 one step growth curves in infected Airway chips treated with IL-13 or not; type: cell-based, human rhinovirus 16; conditions: HRV-16 MOI=2
Procedure: An exemplary virus, Human rhinovirus 16 (HRV16: A16 or type 16, referring to a single stranded RNA virus), in capsid form, was added at a multiplicity of infection of 2 to the upper channel and incubated at 33° C. for 3 hours. Infected chips (n=3) were washed apically (upper channel) daily and replicating virus in the wash fluid was quantified. HRV16 Titer (Log 10 TCID 50/mL) vs time post infection (hours). TCID50 refers to a tissue culture infectious dose, which will infect 50% if the cells in a monolayer challenged with the viral inoculum.

[7] = system: IFN-λ1, IP-10/CXCL10, IL-6 secretion; experiment: Interferon, chemokine and cytokine secretion after HRV16 infection of Airway Chips; type: cell-based, human
Excerpt: HRV-16-induced interferons, chemokines and pro-inflammatory cytokines profile is altered by IL-13 treatment in the severe asthma chip as shown by high resolution, kinetic profiles of cytokine secretion. These graphs (FIG. 17A-C) show results using a method for identifying secretory phases (i.e. I, II, III, and IV) of essential inflammatory cytokines.
FIG. 17A-C HRV-16-induced interferons, chemokines and pro-inflammatory cytokines profile is altered by IL-13 treatment in one embodiment of a severe asthma on-chip. These exemplary graphs show results from high resolution, kinetic profiles of an IFN Lambda 1 response FIG. 17A; IP-10/CXCL10 FIG. 17B; IL-6 response FIG. 17C; following HRV16 infection. A severe asthma on-chip was stimulated with IL-13 (lower red line and squares) while a duplicate chip was not stimulated with IL-13 (upper blue line and circles). IL-13 treatment was over 72 hours post infection. Data represent mean±SEM of cells from three to four different donors, with one or two biological replicates (chips) per donor.
Charts show IFN-λ1 (pg/mL) and IP-10/CXCL10 (pg/mL) measured in apical and basal secretions collected at 24, 48 and 72 h post HRV16 infection comparing control, IL-13 alone, HRV-16 alone and combined treatments.
Thus, IL-13 may delay or prevent IL-6-driven resolution of HRV-induced inflammation. Charts (i.e. readouts) show IL-6 (pg/mL) and IL-8 (pg/mL) measured in apical and basal secretions collected at 24, 48 and 72 h post HRV16 infection comparing control, IL-13 alone, HRV-16 alone and combined treatments.

[8] = system: P. aeruginosa; type: cell-based, Pseudomonas aeruginosa; conditions: lower concentrations
Procedure: Mature small airway chips at air-liquid interface (ALI) were gently washed with PBS to remove excess mucus. Cells were inoculated with 2-3×10^6 colony forming units (CFUs) in Hank's balanced salt solution (HBSS) for 2 hours. At the end of the incubation, the inoculum was removed and the cells were washed 3× with phosphate buffer saline (PBS) to remove any nonadherent bacteria. PBS was removed and cells were incubated at ALI up to 24 hours (h) under flow in the bottom channel but not in the top channel.
After an exemplary on-chip infection protocol, including removing nonadherent bacteria, a test compound was immediately added to the top (apical) and bottom (basal) channels then cells are cultured under flow using media containing the anti-microbial compound, for 24 hours. Exemplary test compound amounts are at least 0.1 μg/ml, up to 50 μg/ml, up to 100 μg/ml, up to 500 μg/ml. In one embodiment, an exemplary test compound is a drug Imipenem.
More specifically, in one embodiment of an Airway on-chip, duplicate chips were infected with PA 5919 WT or PA 5890 Mutant as described herein. Then, Imipenem was added to apical and basolateral fluids (cell media) for treatment with Imipenem at 50, 100 and 500 μg/ml for 24 hours with at least one chip without Imipenem. […] Lysates were serially diluted for CFU quantification. […]
Assay readouts: Viability of extracellular bacteria (apical sampling). […]

[9] = system: human neutrophil; experiment: Neutrophil adhesion, crawling and trans-migration out of the endothelial channel, HRV-16 infected Airway-on-Chip; type: cell-based; conditions: HRV-16 24 hpi
Excerpt: Once recruited to the endothelium, neutrophil movement can be recorded and extravasation monitored as N (number) of spots vs. time (e.g. up to 300-600 seconds).
Thus, migratory cell potential, as extravasation, is identified in graphs below each of these micrographs, FIG. 15A and FIG. 15B, showing the number of white spots (N spots) counted over time for each treatment. For HRV-16 infection alone, the number of spots decreases as the cells move into the cell layer, see, FIG. 15C. […] Extravasation in general refers to the movement of white blood cells into the tissues surrounding them (e.g. leukocyte extravasation), also known as diapedesis.

CN[C@@H]1C[C@H]2O[C@@](C)([C@@H]1OC)n1c3ccccc3c3c4c(c5c6ccccc6n2c5c31)C(=O)NC4 [Staurosporin]
apoptotic cell numbers (TUNEL) [1]: increased apoptotic cell numbers

IL-13: TH2 cytokine used to stimulate an asthma-like phenotype on-chip
neutrophil recruitment ([2]; IL-13+HRV vs either alone): additive increase in neutrophil recruitment | neutrophil recruitment ([2]; IL-13-treated chips vs non-stimulated chips): increased neutrophil recruitment | goblet cell hyperplasia ([3]; IL-13 100 ng/ml, 7 days, endothelial channel): induced goblet cell hyperplasia | adhesion molecule (ICAM-1, VCAM-1, VE-Cadherin) protein expression, immunostaining ([4]; IL-13 100 ng/mL, 48 hours): increased adhesion molecule expression | adhesion protein gene expression in endothelial cells (fold over non-treated) ([4]; IL-13 treatment): up regulates adhesion proteins | cilia beating frequency [5]: reduces cilia beating frequency | HRV infectivity (HRV-16 growth) [6]: does not alter HRV infectivity | epithelial interferon response after HRV-16 infection ([7]; apical/basal secretions, 24-72 h post infection): impairs epithelial interferon response; also recorded: reduces HRV16-induced interferon response | kinetic profile of IFN Lambda 1, CXCL10 and IL-6 secretion ([7]; over 3 days (72 hours) post HRV16 infection): inhibits secretion of IFN Lambda 1, CXCL10 and IL-6 | HRV16-induced IL-6 secretion ([7]; prior stimulation with IL-13, 24, 48, 72 h post infection): inhibited

C[C@@H](O)[C@H]1C(=O)N2C(C(=O)O)=C(SCCN=CN)C[C@H]12 [Imipenem]
permeability of airway cells to imipenem [8]: impermeable

CC[C@@H](Nc1c(Nc2cccc(C(=O)N(C)C)c2O)c(=O)c1=O)c1ccc(C)o1 [MK-7123]
inhibition of relevant physiological responses (neutrophil recruitment) ([2]; CXCR2 antagonist 10 μM): greater than 90% | neutrophil attachment in the lower channel ([2]; HRV-16 infections, with or without IL-13 stimulation): reduced neutrophil attachment | neutrophil recruitment ([2]; MK-7123 10 microM, three stimulation conditions (HRV-16, IL-13, IL-13+HRV)): inhibits neutrophil recruitment; also recorded: significantly reduced neutrophil recruitment | neutrophil attachment in the lower channel ([2]; cells stimulated with IL-13 alone): increased attachment | adhesion of neutrophil cells on endothelial cell surfaces ([9]; 10 microliters of CXCR2 inhibitor added to the lower channel, vs no treatment): reduced adhesion of neutrophil cells | number of spots (neutrophil cells, N spots) counted over time (extravasation) ([9]; up to 600 seconds): remains about the same | neutrophil mobility (crawling) and trans-migration ([9]; severe asthma chip, 10 μM): reduces neutrophil mobility and limits trans-migration

C[C@@H]1CCN(C(=O)CC#N)C[C@@H]1N(C)c1ncnc2[nH]ccc12 [Tofacitinib]
effect on IL-13 induced goblet cell hyperplasia ([3]; IL-13+Tofacitinib): inhibited
